A word on the IC50: it is the concentration needed to halve the response being measured. A higher IC50 goes with weaker potency.

Here are results for eight molecules from publication PMC5807507, “Crystal structures of a bacterial dipeptidyl peptidase IV reveal a novel substrate recognition mechanism distinct from that of mammalian orthologues” (Scientific Reports, 2018).

Molecules are shown by their SMILES. Read-outs that look alike come from different tables or passages of the source.

Assay [1] concerns the target T1, PmDAP IV (Pseudoxanthomonas mexicana, UniProt Q6F3I7).
T1 construct: gene dap4; M12I lies in the removed signal; no tag; 723 residues, 82-kDa; homodimer; crystal model Ala22-Pro745
The assay is described as follows: Gly-Pro-MCA fluorescence hydrolysis inhibition; Ki by Cheng-Prusoff. The assay is classed as biochemical. An excerpt:
Gly-Pro-MCA fluorescence hydrolysis inhibition; Ki by Cheng-Prusoff on PmDAP IV
Target sequence in this assay (Q6F3I7 22-745): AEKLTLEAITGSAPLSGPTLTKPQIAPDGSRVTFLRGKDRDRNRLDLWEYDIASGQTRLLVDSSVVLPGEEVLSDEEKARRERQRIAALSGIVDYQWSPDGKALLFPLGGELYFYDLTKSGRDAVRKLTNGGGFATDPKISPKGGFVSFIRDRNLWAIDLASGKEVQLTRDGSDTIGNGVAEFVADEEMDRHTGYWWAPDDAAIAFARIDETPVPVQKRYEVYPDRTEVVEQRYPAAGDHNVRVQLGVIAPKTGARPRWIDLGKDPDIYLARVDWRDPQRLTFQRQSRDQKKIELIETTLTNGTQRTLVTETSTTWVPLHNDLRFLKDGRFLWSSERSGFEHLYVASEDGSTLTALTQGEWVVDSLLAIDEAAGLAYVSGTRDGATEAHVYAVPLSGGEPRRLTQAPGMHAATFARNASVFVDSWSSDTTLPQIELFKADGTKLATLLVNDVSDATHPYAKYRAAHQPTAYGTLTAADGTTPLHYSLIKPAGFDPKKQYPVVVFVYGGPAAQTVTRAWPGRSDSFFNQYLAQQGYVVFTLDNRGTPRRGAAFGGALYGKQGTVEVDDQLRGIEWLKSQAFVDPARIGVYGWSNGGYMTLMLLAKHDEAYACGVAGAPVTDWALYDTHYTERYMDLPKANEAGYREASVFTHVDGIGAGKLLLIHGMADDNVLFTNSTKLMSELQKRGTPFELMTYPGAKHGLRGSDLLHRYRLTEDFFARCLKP

Assay [2] has as its target T1, PmDAP IV. The experiment in a line: biochemical. The procedure: Inhibitor sensitivities of PmDAP IV and human DPP IV Gliptins and diprotin A were purchased from NAMIKI SHOJI Co., Ltd. (Tokyo, Japan) and Peptide Institute, Inc. (Osaka, Japan), respectively. Half-maximal inhibitory concentration (IC50) values were determined by fitting to a sigmoid curve (4-parameter logistic curve) using ImageJ[73]. […] Inhibitor concentrations for PmDAP IV were 0.78, 1.56, 3.13, 6.25, 12.5, 25, 50 and 100 µM, and those for human DPP IV were 0.78, 1.56, 3.13, 6.25, 12.5, 25, 50 and 100 nM. Standard deviations were calculated from three independent experiments. Fluorescence intensity was measured with excitation at 355 nm and emission at 460 nm using an Infinite 200 PRO microplate reader. Inhibition constants (Ki) were calculated using the Cheng-Prusoff equation[74]. Arg106 of PmDAP IV, which is involved in the recognition of the carbonyl group of the P2 residue of the substrate peptide, was mutated to Ala or Lys. The mutants were expressed and purified using the method described above for wild-type PmDAP IV. Recombinant human DPP IV was purchased from ATGen Co., Ltd. (Los Angeles, USA). Kinetic parameters were determined by fitting the experimental data to the Michaelis–Menten equation using Excel Solver (Microsoft) by nonlinear least squares fitting for different concentrations (0.78, 1.56, 3.13, 6.25, 12.5, 25, 50 and 100 µM) of glycyl-L-proline 4-methylcoumaryl-7-amide (Gly-Pro-MCA, Peptide Institute) as a substrate. The enzyme reaction was performed in a reaction buffer containing 50 mM sodium phosphate buffer pH 8.0, 5 mM EDTA and 0.005% Tween 20 at 298 K for 20 min, and standard deviations were calculated from three independent experiments. The fluorescence intensity of the released MCA was measured with excitation at 355 nm and emission at 460 nm using an Infinite 200 PRO microplate reader (TECAN).
Target sequence in this assay (Q6F3I7 22-745 limits assumed): as the sequence (Q6F3I7 22-745) above

Consider `Cc1cc2ncc(C(=O)NCC(C)(C)NCC(=O)N3CCC[C@H]3C#N)cn2n1` [Anagliptin], for which the Ki in assay [1] (read-out: PmDAP IV / Ki) turned out to be 3.99 ± 0.07 µM. The molecule also registered a half-maximal inhibitory concentration (IC50) in assay [2] of 24.5 ± 0.4 µM.

Take `CC#CCn1c(N2CCC[C@@H](N)C2)nc2c1c(=O)n(Cc1nc(C)c3ccccc3n1)c(=O)n2C` [Linagliptin]: the Ki in assay [1] (read-out: PmDAP IV / Ki) worked out at 30 ± 1.16 µM. In assay [2], this molecule returned an IC50 of over 100 µM.

For the molecule `CS(=O)(=O)n1cc2c(n1)CN([C@H]1CO[C@H](c3cc(F)ccc3F)[C@@H](N)C1)C2` [Omarigliptin], the Ki in assay [1] (read-out: PmDAP IV / Ki) turned out to be 23.8 ± 3.8 µM. In assay [2], this molecule gave an IC50 of over 100 µM.

In assay [1], `N#C[C@@H]1C[C@@H]2C[C@@H]2N1C(=O)[C@@H](N)C12CC3CC(CC(O)(C3)C1)C2` [Saxagliptin] displayed a Ki of 1.85 ± 0.13 µM. In assay [2], this molecule displayed an IC50 of 11.1 ± 0.8 µM.

In assay [1], `N[C@@H](CC(=O)N1CCn2c(nnc2C(F)(F)F)C1)Cc1cc(F)c(F)cc1F` [Sitagliptin] gave a Ki of 4 ± 0.59 µM. Further, in assay [2], the IC50 was 24.6 ± 3.6 µM.

For the molecule `Cc1cc(N2CCN([C@@H]3CN[C@H](C(=O)N4CCSC4)C3)CC2)n(-c2ccccc2)n1` [Teneligliptin], the Ki in assay [1] (read-out: PmDAP IV / Ki) came to 2.34 ± 0.09 µM.

With `Cn1c(=O)cc(N2CCC[C@@H](N)C2)n(Cc2cc(F)ccc2C#N)c1=O` [Trelagliptin], the half-maximal inhibitory concentration (IC50) in assay [2] was over 100 µM.

As for `N#C[C@@H]1CCCN1C(=O)CNC12CC3CC(CC(O)(C3)C1)C2` [Vildagliptin], the Ki in assay [1] turned out to be 3.07 ± 0.39 µM. For the same molecule, the IC50 in assay [2] stood at 18.8 ± 2.4 µM.
